# Test results: ChEMBL document CHEMBL1144094, “Phenylethanoid glycosides from Globularia trichosantha” (J Nat Prod, 1999)
# Active and inactive are the calls of the source. No cut-off for these calls is given here.
# System: Radical scavenging activity
# Experiment: Antioxidant activity assessed as DPPH free radical scavenging activity by TLC autographic assay
# Assay type: functional
row,Structure (SMILES),Activity
1,C[C@@H]1O[C@@H](O[C@@H]2[C@@H](O)[C@H](OCCc3ccc(O)c(O)c3)O[C@H](CO)[C@H]2OC(=O)/C=C/c2ccc(O)c(O)c2)[C@H](O)[C@H](O)[C@H]1O[C@@H]1OC[C@@H](O)[C@H](O)[C@H]1O,Active
2,C[C@@H]1O[C@@H](O[C@@H]2[C@@H](O)[C@H](OCCc3ccc(O)c(O)c3)O[C@H](CO)[C@H]2OC(=O)/C=C/c2ccc(O)c(O)c2)[C@H](O)[C@H](O)[C@H]1O[C@@H]1O[C@H](CO)[C@@H](O)[C@H](O)[C@H]1O,Active
3,C[C@@H]1O[C@@H](O[C@@H]2[C@@H](O)[C@H](OCCc3ccc(O)c(O)c3)O[C@H](CO)[C@H]2OC(=O)/C=C/c2ccc(O)c(O)c2)[C@H](O)[C@H](O)[C@H]1O,Active
4,C[C@@H]1O[C@@H](O[C@@H]2[C@H]3O[C@@H](c4ccc(O)c(O)c4)CO[C@@H]3O[C@H](CO)[C@H]2OC(=O)/C=C/c2ccc(O)c(O)c2)[C@H](O)[C@H](O)[C@H]1O,Active
5,C[C@@H]1O[C@@H](O[C@@H]2[C@@H](O)[C@H](OCCc3ccc(O)c(O)c3)O[C@H](CO[C@@H]3OC[C@@H](O)[C@H](O)[C@H]3O)[C@H]2OC(=O)/C=C/c2ccc(O)c(O)c2)[C@H](O)[C@H](O)[C@H]1O[C@@H]1OC[C@@H](O)[C@H](O)[C@H]1O,Active
